Reference: patent US20090069441A1, “Motuporamine Mimic Agents” (priority 2006, published 2009)
Like-named read-outs stand apart in the source and are kept apart here.

What was measured:
[1] = target: polyamine transporter (PAT); conditions: data originally reported in Ref; read-out: L1210 Ki value; cited from earlier work
[2] = system: L1210 cells; conditions: 48 h incubation; data originally reported in Ref; cited from earlier work
[3] = system: CHO-MG cells; conditions: 48 h incubation; data originally reported in Ref; cited from earlier work
[4] = system: CHO cells; conditions: data originally reported in Ref, cited from earlier work; for IC50: 48 h incubation
[5] = system: Drosophila imaginal leg discs; experiment: Imaginal disc eversion assay; assay type: cell-based, Drosophila melanogaster; conditions: Drosophila melanogaster, 15 hr incubation in Robb's medium
Description: DihydroMotuporamine C, 4a, was used to develop an imaginal disc assay in Drosophila flies. The imaginal leg discs were collected by microscopic dissection from maggots. […] Inhibition was measured as failure of the disc to fully develop into a fly leg after 15 hr of incubation in Robb's growth medium. This presumably occurs by overactivation of Rho, an important signaling pathway in development. Hyper-stimulation of this pathway is sufficient to block development of the fly leg.
Fly Stocks: 20 female and 5 male wild type Oregon variant of Drosophila melanogaster interbred in blue food medium for 24 hours then flies are removed. Third instar wall-crawling larvae collected then dissected on the sixth day. Flies kept in 25° C. incubation chamber.
Blue Food Preparation: Standard corn meal medium heated then mixed completely with aqueous 1% Bromophenol Blue. The food medium is cooled for one day or more before use.
Dissection Medium: Ringer's Buffer with 10 uL 0.1% BSA. Ringer's Medium consists of 130 mM NaCl, 5 mM KCl, 1.5 mM CaCl2-2H2O, Stored at room temperature (23° C.), BSA added before dissection.
Cultivation Medium: Minimal Robb's Medium with 10 uL 0.1% BSA. Minimal Robb's Medium consists of 40 mM KCl, 0.4 mM KH2PO4, 40 mM NaCl, 0.4 mM NaH2PO4.7H2O, 1.2 mM MgSO4.7H2O, 1.2 mM MgCl2-6H2O, 1 mM CaCl2-2H2O, 10 mM Glucose, 0.2 mM L-asparagine, 4.0 mM L-glutamine, 0.16 mM Glycine, 0.64 mM L-leucine, 0.32 mM L-proline, 0.16 mM R-Serine, 0.64 mM L-valine. Stored at −25° C. One day before dissection, aliquot defrosted in 4° C. Add BSA then warmed to room temperature (23° C.) before dissection.
0.1% BSA: 0.1 g BSA fraction V (Sigma#A-9647) in 10 mL distilled H2O, Stored at 4° C.
Developmental Hormone: 1 mg 20-hydroxyecdysone (Sigma #H-5142) in 1 mL 100% Ethanol. Stored at −25° C. Before use, stock is diluted 10× (1 mL added to 9 mL of 100% Ethanol). 10 μL of diluted 20-hydroxyecdysone is added to culture.
Dissection Procedures: Third instar larvae are removed from cultivation bottle with a wetted brush and washed in dH2O to remove food medium clinging to larvae. The cleaned larvae are dissected in Ringer's Medium using forceps. The imaginal discs are washed in fresh Ringer's Medium, and then cultivated with 1 mL of Robb's Medium in 12-well culture plate. Each culture well should have 30˜40 imaginal discs.
Culturing Procedures: In a larger container, place the 12-well culture plate on a moist towel, then seal the large container. Cultivate at 25° C. for 15 hours. Evaluation: Three categories will be used to grade the eversion of each imaginal disc. Full Eversion—the leg is fully extended from the disc. Partial Eversion—the leg is protruding from the epithelial. No Eversion—no sign of any protrusion.

[6] = system: L1210 cells; experiment: Cytotoxicity (cell growth, MTT) in L1210 cells; assay type: cell-based, mouse; conditions: Mus musculus; L1210 experiments, no added SPD; read-out: L1210 IC50
Text: In terms of Table 1, L1210 cells are mouse leukemia cells and are the gold standard in terms of evaluating polyamine cytotoxicity data due to a plethora of prior data in this cell line for other polyamine structures. Clearly 7a was similar in all respects to 4a (Table 1). […] The lower the Ki value, the higher the affinity of the drug for the polyamine transporter (PAT) on the cell surface. Chinese hamster ovary (CHO) cells and a mutant line without an active PAT (CHO-MG) also evaluated the PAT selectivity of these drugs.
Biological Evaluation. Once synthesized, the conjugates were screened for cytotoxicity in L1210, CHO and CHO-MG cells. L1210 (mouse leukemia) cells were selected to enable comparisons with the published IC50 and Ki values for a variety of polyamine substrates. Chinese Hamster Ovary (CHO) cells were chosen along with a mutant PAT deficient cell line (CHO-MG) in order to comment on selective transport via the PAT (Wang et al, J. Med. Chem. 2003, 46, 2663-2671; Wang et al, J. Med. Chem. 2003, 46, 2672-2682; Wang et al., J. Med. Chem. 2003, 46, 5129-5138; Delcros et al., J. Med. Chem., 2002, 45, 5098-5111).
L1210 IC50 and Ki studies. […] The Ki values in Table 3 were determined for [^14C]spermidine uptake and reflect the affinity of the polyamine derivative for the polyamine transporter on the cell surface. With both parameters, one can determine whether high affinity for the transporter (e.g., low Ki value) translated into high cytotoxicity (e.g., low IC50 value), etc.
Biological studies. Murine leukemia cells (L1210), CHO and CHO-MG cells were grown in RPMI medium supplemented with 10% fetal calf serum, glutamine (2 mM), penicillin (100 U/mL), streptomycin (50 μg/mL). L-Proline (2 μg/mL) was added to the culture medium for CHO-MG cells. Cells were grown at 37° C. under a humidified 5% CO2 atmosphere. Aminoguanidine (AG, 2 mM) was added to the culture medium to prevent oxidation of the drugs by the enzyme (bovine serum amine oxidase) present in calf serum. Trypan blue staining was used to determine cell viability before the initiation of a cytotoxicity experiment. Cells in early to mid log-phase were used. IC50 determinations. Cell growth was assayed in sterile 96-well microtiter plates (Becton-Dickinson, Oxnard, Calif., USA). L1210 cells were seeded at 5e^4 cells/mL of medium (100 μL/well). CHO and CHO-MG cells were plated at 2e^3 cells/mL. Drug solutions (10 μL per well) of appropriate concentration were added at the time of seeding for L1210 cells and after an overnight incubation for the CHO cell lines. After exposure to the drug for 48 hr, cell growth was determined by measuring formazan formation from 3-(4,5-dimethylthiazol-2-yl)2,5-diphenyltetrazolium using a Titertek Multiskan MCC/340 microplate reader for absorbance (540 nm) measurements (Mosmann, T., J. Immunol. Methods 1983, 65, 55-63).

Compound | Ki [1] | IC50 [2] | IC50 [3] | IC50 [4] | IC50 Ratio (CHO-MG/CHO), a measure of PAT selectivity [4] | inhibition at 18 µM [5] | IC50 [6]
NCCCNCCCN1CCCCCCCCCCCCCC1 [Compound 4a, Dihydromotuporamine C, reference compound] | 9.9 µM | 3 µM | 10 µM | 10.5 µM | 1 |  | 
NCCCNCCCNCc1c2ccccc2cc2ccccc12 [Compound 6a] | 33.4 µM | 1.8 µM | 3.4 µM | 1.9 µM | 1.8 | 60% | 
CCN(CCCCNCCCCN)Cc1c2ccccc2cc2ccccc12 [Compound 7b, N-(4-Amino-butyl)-N′-anthracen-9-ylmethyl-N′-ethyl-butane-1,4-diamine] | 24.4 µM |  | 21.9 µM | 22.2 µM | 1 | 8% | 22.2 µM
